Laboratory results as given in ChEMBL document CHEMBL5465560, “Selectivity Literature for EUbOPEN Chemogenomic Library” (2024).

Key:
[1] = molecular target: T1, Cytoplasmic tyrosine-protein kinase BMX (Homo sapiens) (UniProt P51813); experiment: Selectivity interaction (Kinase panel (DSF assay)) EUB0001559a BMX
T1 sequence (whole entry): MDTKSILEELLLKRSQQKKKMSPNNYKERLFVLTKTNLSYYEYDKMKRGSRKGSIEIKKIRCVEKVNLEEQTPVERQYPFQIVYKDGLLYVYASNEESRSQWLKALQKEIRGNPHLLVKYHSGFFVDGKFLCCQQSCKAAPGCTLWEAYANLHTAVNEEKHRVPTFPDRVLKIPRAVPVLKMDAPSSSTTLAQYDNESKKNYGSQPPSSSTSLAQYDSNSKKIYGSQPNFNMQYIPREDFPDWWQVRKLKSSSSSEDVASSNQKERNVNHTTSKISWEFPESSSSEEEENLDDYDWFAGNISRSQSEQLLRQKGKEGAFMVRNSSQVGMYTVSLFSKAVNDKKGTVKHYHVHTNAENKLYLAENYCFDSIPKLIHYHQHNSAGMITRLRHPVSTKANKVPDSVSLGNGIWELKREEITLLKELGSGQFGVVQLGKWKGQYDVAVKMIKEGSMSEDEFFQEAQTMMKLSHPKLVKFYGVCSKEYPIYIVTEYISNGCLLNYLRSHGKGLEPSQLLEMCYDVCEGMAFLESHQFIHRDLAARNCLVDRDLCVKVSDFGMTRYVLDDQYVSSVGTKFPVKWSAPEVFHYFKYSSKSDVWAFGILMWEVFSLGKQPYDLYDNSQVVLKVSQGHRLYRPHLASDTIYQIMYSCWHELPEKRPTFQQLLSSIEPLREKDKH

[2] = molecular target: Serine/threonine-protein kinase MARK2 (Homo sapiens) (UniProt Q7KZI7); experiment: Selectivity interaction (KinomeScan (DiscoverX)) EUB0000045b MARK2
[3] = molecular target: T2, Serine/threonine-protein kinase ICK (Homo sapiens) (UniProt Q9UPZ9); experiment: Selectivity interaction (KinomeScan (DiscoverX)) EUB0000045b ICK
T2 sequence (whole entry): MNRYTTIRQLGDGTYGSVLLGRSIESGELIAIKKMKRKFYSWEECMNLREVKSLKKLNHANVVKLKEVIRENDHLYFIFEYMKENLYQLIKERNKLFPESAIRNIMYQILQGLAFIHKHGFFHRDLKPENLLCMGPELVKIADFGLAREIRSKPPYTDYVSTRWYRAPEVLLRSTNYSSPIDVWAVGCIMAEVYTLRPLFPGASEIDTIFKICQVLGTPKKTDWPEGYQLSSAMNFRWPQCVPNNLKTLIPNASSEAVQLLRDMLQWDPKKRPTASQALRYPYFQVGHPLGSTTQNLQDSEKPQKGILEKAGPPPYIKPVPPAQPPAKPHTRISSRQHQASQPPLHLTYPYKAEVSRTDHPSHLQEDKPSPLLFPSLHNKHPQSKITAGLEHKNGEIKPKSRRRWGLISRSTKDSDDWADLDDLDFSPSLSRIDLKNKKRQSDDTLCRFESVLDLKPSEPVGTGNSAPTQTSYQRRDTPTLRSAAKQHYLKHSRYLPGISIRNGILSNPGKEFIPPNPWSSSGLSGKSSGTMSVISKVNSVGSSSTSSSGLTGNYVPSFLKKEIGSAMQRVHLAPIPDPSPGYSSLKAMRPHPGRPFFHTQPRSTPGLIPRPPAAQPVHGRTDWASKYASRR

[4] = Selectivity interaction (KinomeScan (DiscoverX)) EUB0001079a CDPK1; settings: at 1 µM
[5] = molecular target: T3, Mitogen-activated protein kinase 15 (Homo sapiens) (UniProt Q8TD08); experiment: Selectivity interaction (LanthaScreen Eu Kinase Binding Assay) EUB0001632a MAPK15; settings: at 10 µM
T3 sequence (whole entry): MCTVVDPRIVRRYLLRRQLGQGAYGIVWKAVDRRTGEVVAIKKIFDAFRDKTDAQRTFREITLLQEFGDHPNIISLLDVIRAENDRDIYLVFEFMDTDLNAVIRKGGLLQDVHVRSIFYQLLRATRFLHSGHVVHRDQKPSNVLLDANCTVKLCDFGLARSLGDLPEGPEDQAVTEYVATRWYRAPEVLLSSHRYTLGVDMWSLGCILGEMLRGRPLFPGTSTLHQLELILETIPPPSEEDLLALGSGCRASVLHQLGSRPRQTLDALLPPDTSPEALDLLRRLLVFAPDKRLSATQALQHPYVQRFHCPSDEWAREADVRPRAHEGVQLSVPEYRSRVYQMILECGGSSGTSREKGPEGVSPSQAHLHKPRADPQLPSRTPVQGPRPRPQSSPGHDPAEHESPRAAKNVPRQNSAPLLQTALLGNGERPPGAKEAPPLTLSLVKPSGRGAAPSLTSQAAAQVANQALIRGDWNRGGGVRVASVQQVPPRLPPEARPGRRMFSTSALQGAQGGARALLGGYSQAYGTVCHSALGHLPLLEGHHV

[6] = molecular target: Serine/threonine-protein kinase N1 (Homo sapiens, UniProt Q16512); experiment: Selectivity interaction (KinomeScan (DiscoverX)) EUB0001049a PKN1; settings: at 1 µM
[7] = molecular target: Atypical kinase COQ8A, mitochondrial (Homo sapiens, UniProt Q8NI60); experiment: Selectivity interaction (KinomeScan (DiscoverX)) EUB0001049a ADCK3; settings: at 1 µM
[8] = molecular target: Serine/threonine-protein kinase MRCK alpha (Homo sapiens) (UniProt Q5VT25); experiment: Selectivity interaction (Kinase panel (DSF assay)) EUB0001558a CDC42BPA
Chain of Serine/threonine-protein kinase MRCK alpha (Homo sapiens) (Q5VT25 whole entry): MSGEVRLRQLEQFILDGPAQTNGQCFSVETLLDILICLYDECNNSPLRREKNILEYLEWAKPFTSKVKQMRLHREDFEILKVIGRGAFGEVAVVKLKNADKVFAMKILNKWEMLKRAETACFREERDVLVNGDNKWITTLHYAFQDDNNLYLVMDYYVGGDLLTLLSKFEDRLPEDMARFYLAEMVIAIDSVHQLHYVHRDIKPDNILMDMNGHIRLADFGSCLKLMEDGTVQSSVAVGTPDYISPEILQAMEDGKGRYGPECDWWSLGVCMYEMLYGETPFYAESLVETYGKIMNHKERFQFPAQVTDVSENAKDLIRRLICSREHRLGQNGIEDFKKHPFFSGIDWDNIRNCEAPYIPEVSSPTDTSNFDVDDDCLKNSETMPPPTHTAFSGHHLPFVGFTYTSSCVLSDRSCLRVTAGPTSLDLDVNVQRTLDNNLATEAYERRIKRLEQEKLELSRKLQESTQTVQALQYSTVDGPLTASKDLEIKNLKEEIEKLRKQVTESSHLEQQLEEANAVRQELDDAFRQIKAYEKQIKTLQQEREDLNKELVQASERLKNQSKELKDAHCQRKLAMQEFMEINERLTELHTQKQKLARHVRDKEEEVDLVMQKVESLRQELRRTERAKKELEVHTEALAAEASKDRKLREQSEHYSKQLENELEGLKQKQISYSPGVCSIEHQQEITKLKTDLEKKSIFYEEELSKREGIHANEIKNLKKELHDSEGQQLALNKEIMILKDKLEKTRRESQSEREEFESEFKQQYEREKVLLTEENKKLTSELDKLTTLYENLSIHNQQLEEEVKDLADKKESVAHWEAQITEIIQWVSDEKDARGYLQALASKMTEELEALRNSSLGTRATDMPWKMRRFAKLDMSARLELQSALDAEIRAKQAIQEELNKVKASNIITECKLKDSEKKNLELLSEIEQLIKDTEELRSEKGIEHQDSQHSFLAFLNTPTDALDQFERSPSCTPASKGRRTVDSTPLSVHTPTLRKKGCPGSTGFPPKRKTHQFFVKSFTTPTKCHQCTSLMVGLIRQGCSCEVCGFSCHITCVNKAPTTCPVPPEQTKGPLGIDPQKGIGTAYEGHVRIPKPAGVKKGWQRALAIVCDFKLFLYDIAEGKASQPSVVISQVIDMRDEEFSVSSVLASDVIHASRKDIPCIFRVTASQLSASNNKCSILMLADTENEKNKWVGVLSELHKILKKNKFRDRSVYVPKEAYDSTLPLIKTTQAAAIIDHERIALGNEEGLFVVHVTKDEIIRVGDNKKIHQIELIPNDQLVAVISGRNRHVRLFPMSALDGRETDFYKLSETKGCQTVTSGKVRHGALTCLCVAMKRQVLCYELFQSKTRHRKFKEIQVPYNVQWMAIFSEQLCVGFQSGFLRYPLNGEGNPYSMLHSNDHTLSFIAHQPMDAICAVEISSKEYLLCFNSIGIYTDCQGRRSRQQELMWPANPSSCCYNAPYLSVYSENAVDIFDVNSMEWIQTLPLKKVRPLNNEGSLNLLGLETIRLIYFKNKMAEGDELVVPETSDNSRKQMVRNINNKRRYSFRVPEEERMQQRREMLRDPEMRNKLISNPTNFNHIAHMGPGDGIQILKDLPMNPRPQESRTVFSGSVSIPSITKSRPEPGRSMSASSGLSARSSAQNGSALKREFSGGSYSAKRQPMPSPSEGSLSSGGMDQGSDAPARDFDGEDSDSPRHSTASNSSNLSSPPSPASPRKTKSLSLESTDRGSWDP

Chain of Serine/threonine-protein kinase MARK2 (Homo sapiens) (Q7KZI7 whole entry): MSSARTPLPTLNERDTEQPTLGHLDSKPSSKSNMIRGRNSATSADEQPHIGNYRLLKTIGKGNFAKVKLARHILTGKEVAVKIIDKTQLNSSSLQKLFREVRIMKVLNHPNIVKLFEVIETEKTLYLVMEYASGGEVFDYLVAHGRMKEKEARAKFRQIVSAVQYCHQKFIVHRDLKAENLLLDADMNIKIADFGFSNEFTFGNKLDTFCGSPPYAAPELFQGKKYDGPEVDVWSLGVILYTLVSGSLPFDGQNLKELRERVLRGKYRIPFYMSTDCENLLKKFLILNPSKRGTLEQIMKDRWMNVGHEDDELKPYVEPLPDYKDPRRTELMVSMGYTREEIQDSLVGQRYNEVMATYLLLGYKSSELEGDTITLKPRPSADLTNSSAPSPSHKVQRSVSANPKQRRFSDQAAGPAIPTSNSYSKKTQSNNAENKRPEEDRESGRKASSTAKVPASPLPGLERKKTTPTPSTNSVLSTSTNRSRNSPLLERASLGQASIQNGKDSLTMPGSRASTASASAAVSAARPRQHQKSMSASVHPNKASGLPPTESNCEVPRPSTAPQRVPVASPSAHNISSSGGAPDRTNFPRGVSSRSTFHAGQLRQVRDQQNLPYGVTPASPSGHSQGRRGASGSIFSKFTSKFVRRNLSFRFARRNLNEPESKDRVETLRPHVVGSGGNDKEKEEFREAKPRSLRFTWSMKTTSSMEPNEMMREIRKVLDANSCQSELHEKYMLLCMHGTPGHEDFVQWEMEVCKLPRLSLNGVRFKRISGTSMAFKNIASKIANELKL
Chain of Serine/threonine-protein kinase N1 (Q16512 2-942 limits assumed): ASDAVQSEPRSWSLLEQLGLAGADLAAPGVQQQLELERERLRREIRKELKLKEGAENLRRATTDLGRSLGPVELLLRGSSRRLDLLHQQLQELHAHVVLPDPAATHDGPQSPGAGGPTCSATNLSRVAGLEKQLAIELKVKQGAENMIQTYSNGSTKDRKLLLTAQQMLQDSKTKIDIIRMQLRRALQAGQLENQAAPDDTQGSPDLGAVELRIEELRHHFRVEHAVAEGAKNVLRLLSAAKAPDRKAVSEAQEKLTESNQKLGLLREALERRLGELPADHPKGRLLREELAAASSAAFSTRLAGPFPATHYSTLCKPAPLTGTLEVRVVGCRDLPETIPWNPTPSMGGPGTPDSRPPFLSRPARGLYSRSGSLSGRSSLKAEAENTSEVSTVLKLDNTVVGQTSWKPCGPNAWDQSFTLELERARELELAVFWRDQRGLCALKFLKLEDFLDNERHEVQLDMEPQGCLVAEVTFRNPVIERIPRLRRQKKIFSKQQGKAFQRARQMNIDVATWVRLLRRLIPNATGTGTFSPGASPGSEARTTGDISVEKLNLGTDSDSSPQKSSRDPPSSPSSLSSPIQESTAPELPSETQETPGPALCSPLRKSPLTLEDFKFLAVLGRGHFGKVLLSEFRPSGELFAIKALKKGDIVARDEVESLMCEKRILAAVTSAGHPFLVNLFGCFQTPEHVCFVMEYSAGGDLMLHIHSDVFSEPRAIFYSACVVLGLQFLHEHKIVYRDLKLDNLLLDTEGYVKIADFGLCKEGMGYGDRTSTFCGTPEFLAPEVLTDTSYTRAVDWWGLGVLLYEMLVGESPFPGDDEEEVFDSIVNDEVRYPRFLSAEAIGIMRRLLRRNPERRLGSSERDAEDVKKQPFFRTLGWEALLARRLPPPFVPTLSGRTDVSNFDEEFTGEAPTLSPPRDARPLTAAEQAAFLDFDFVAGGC
Chain of Atypical kinase COQ8A, mitochondrial (Q8NI60 163-647 limits assumed): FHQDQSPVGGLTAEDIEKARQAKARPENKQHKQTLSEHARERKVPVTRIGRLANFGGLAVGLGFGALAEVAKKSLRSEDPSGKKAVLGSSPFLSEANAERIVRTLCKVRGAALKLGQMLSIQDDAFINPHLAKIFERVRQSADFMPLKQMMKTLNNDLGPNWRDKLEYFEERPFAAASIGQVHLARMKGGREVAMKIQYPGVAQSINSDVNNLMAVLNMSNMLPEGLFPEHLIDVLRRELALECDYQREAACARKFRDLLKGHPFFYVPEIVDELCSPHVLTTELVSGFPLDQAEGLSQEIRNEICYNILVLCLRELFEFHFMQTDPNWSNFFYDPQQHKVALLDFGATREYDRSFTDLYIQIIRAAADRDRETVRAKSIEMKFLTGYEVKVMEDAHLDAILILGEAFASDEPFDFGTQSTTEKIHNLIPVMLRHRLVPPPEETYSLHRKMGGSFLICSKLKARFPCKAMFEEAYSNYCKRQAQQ

## CN(C(=O)c1cnn2cccnc12)c1cc2c(cc1N1CCOCC1)C(=O)N(C[C@@H](F)C(C)(C)O)C2
[1]
  dTM: 0.1 K

## C=CC(=O)Nc1cc(-n2c(=O)ccc3cnc4ccc(-c5ccc(NS(C)(=O)=O)cc5)cc4c32)ccc1C
[2]; at 1 µM
  % of control: 94%
[2]; at 10 µM
  % of control: 100%
[3]; at 1 µM
  % of control: 100%
[3]; at 10 µM
  % of control: 100%

## Nc1cnc(N2CCc3cc(S(=O)(=O)Nc4c(F)cc(Cl)cc4F)cc(N4CCCC4=O)c32)nc1 [TP-020n]
[4]
  % of control: 97%

## Cn1cc(-n2cnc3c(NCc4nc5cc(Cl)c(Cl)cc5[nH]4)nc(N4CCOCC4)nc32)cn1
[5]
  % of inhibition: -42.8%

## COc1cc(Nc2nc(C)cc(-c3cnn4nc(OC)ccc34)n2)cc(C(F)(F)F)c1
[6]
  % of control: 94%
[7]
  % of control: 91%

## CC(C)(O)[C@H](F)CN1Cc2cc(NC(=O)c3cnn4cccnc34)c(N3CCOCC3)cc2C1=O
[8]
  dTM: 0.2 K
